Laboratory results published in ChEMBL document CHEMBL4033774, “Class I HDAC Inhibitors: Potential New Epigenetic Therapeutics for Alcohol Use Disorder (AUD)” (J Med Chem, 2018).
One block for each molecule: values may come before it.

Key:
Histone deacetylase 2 = Histone deacetylase 2 (Homo sapiens, UniProt Q92769); experiment: Inhibition of human full length C-terminal FLAG-tagged HDAC2 expressed in baculovirus infected Sf9 insect cells preincubated for 2 hrs followed by Fluor-de-Lys substrate addition measured after 30 mins by fluorescence assay; format: cell-based
Histone deacetylase 1 = Histone deacetylase 1 (Homo sapiens, UniProt Q13547); experiment: Inhibition of human full length C-terminal His/FLAG-tagged HDAC1 expressed in baculovirus infected Sf9 insect cells preincubated for 2 hrs followed by Fluor-de-Lys substrate addition measured after 30 mins by fluorescence assay; format: cell-based
[1] = target: Histone deacetylase 3/Nuclear receptor corepressor 2 (HDAC3/NCoR2) (Homo sapiens, UniProt O15379); experiment: Inhibition of human full length C-terminal His-tagged HDAC3/N-terminal GST-tagged human NCOR2 co-expressed in baculovirus infected Sf9 insect cells preincubated for 2 hrs followed by Fluor-de-Lys substrate addition measured after 30 mins by fluorescence assay; format: cell-based
Histone deacetylase 7 = target: T1, Histone deacetylase 7 (Homo sapiens, UniProt Q8WUI4); experiment: Inhibition of human recombinant N-terminal GST-tagged HDAC7 expressed in baculovirus infected insect cells preincubated for 2 hrs followed by Fluor-de-Lys substrate addition measured after 30 mins by fluorescence assay; format: cell-based
T1 sequence (Q8WUI4 whole entry): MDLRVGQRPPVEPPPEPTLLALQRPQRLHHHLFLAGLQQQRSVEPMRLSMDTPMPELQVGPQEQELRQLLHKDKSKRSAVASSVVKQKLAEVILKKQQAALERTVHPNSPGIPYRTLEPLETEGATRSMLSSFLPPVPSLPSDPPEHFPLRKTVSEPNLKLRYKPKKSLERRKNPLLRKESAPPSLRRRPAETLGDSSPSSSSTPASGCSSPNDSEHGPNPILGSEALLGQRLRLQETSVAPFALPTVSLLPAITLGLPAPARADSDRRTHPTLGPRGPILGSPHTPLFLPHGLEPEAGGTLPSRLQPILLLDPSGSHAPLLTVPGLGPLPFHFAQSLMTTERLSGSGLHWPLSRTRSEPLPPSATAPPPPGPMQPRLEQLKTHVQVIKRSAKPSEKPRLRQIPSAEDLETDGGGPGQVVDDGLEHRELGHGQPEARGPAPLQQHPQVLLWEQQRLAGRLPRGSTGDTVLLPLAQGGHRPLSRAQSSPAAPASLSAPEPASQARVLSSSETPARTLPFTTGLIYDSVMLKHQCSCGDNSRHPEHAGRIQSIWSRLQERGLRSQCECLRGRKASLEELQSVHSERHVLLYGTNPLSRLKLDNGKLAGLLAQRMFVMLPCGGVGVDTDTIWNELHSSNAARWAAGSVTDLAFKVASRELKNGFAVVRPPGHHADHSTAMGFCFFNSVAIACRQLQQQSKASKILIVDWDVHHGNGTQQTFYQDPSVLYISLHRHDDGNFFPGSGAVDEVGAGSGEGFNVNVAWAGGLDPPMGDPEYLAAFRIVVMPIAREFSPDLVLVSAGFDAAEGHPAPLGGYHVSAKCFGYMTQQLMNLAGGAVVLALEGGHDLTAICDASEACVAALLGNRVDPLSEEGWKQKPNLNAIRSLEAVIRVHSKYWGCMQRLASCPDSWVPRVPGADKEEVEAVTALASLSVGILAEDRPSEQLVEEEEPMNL

Histone deacetylase 5 = Histone deacetylase 5 (Homo sapiens, UniProt Q9UQL6); experiment: Inhibition of human recombinant C-terminal His-tagged HDAC5 expressed in baculovirus infected insect cells preincubated for 2 hrs followed by Fluor-de-Lys substrate addition measured after 30 mins by fluorescence assay; format: cell-based
Histone deacetylase 8 = target: T2, Histone deacetylase 8 (Homo sapiens, UniProt Q9BY41); experiment: Inhibition of HDAC8 (unknown origin) preincubated for 2 hrs followed by Fluor-de-Lys substrate addition measured after 30 mins by fluorescence assay
T2 sequence (Q9BY41 whole entry): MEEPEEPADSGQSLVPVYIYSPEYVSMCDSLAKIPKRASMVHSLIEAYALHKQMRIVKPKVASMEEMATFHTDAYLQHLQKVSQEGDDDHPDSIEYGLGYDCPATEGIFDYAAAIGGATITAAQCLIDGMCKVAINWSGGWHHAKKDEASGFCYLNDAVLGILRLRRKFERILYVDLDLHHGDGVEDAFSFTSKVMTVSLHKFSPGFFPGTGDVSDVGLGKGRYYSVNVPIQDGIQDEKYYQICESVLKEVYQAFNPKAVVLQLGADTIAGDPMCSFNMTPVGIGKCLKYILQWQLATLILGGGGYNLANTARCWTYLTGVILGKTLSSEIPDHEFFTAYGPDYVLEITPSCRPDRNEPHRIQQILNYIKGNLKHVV

Histone deacetylase 4 = Histone deacetylase 4 (Homo sapiens, UniProt P56524); experiment: Inhibition of human recombinant N-terminal GST-tagged/C-terminal His-tagged HDAC4 expressed in baculovirus infected insect cells preincubated for 2 hrs followed by Fluor-de-Lys substrate addition measured after 30 mins by fluorescence assay; format: cell-based
[2] = Lipophilicity, log P of the compound at pH 7.4; format: physicochemical; conditions: buffer
[3] = Half life in human at 6 mg/m2, po; format: ADME
Brain [4] = experiment: Drug uptake in iv dosed baboon brain after 90 mins by PET imaging method relative to control; format: ADME, organism-based; conditions: papio anubis, in vivo, 1.5 h
Rattus norvegicus [5] = experiment: Decrease in alcohol intake in rat model of voluntary heavy drinking assessed as decrease in relapse phenomenon after period of abstinence at 500 uM, icv administered twice relative to control; format: functional; design: scale not given: the % may be the effect or the level left
[6] = Lipophilicity, log D of the compound at pH 7.4; format: physicochemical; conditions: buffer
[7] = Half life in human at 2 mg/m2 dosed twice a week; format: ADME, organism-based; conditions: in vivo
Brain [8] = experiment: Drug uptake in iv dosed rat brain after 90 mins by PET imaging method relative to control; format: ADME, organism-based; conditions: in vivo, 1.5 h
Rattus norvegicus [9] = experiment: Decrease in alcohol intake in rat model of voluntary heavy drinking assessed as decrease in motivation to consume alcohol at 500 uM, icv administered twice relative to control; format: functional; design: scale not given: the % may be the effect or the level left
Rattus norvegicus [10] = experiment: Decrease in alcohol intake in rat model of voluntary heavy drinking assessed as decrease in operant alcohol self-administration at 500 uM, icv administered twice relative to control; format: functional; design: scale not given: the % may be the effect or the level left
Mus musculus [11] = experiment: Decrease in alcohol intake in C57BL/6J mouse at 100 mg/kg, ip relative to control; format: functional; design: scale not given: the % may be the effect or the level left
Mus musculus [12] = experiment: Decrease in alcohol intake in C57BL/6J mouse at 50 mg/kg, ip relative to control; format: functional; design: scale not given: the % may be the effect or the level left
Rattus norvegicus [13] = experiment: Decrease in alcohol intake in rat assessed as operant alcohol self-administration at 50 mg/kg, ip administered once in a week relative to control; format: functional; design: scale not given: the % may be the effect or the level left

Chain of Histone deacetylase 1 (Q13547 whole entry): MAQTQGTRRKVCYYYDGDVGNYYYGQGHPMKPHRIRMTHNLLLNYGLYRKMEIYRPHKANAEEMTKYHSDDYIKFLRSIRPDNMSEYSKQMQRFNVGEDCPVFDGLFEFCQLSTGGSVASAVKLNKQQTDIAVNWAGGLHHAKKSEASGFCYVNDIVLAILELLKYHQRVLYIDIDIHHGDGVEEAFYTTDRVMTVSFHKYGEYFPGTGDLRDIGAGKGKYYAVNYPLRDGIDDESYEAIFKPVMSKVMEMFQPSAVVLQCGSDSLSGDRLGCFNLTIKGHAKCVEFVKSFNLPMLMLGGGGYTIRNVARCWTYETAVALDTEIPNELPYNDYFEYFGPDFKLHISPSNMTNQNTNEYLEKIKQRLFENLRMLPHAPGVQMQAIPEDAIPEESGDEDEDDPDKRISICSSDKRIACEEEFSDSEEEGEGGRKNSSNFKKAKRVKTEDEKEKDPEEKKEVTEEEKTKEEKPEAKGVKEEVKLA
Chain of Histone deacetylase 5 (Q9UQL6 whole entry): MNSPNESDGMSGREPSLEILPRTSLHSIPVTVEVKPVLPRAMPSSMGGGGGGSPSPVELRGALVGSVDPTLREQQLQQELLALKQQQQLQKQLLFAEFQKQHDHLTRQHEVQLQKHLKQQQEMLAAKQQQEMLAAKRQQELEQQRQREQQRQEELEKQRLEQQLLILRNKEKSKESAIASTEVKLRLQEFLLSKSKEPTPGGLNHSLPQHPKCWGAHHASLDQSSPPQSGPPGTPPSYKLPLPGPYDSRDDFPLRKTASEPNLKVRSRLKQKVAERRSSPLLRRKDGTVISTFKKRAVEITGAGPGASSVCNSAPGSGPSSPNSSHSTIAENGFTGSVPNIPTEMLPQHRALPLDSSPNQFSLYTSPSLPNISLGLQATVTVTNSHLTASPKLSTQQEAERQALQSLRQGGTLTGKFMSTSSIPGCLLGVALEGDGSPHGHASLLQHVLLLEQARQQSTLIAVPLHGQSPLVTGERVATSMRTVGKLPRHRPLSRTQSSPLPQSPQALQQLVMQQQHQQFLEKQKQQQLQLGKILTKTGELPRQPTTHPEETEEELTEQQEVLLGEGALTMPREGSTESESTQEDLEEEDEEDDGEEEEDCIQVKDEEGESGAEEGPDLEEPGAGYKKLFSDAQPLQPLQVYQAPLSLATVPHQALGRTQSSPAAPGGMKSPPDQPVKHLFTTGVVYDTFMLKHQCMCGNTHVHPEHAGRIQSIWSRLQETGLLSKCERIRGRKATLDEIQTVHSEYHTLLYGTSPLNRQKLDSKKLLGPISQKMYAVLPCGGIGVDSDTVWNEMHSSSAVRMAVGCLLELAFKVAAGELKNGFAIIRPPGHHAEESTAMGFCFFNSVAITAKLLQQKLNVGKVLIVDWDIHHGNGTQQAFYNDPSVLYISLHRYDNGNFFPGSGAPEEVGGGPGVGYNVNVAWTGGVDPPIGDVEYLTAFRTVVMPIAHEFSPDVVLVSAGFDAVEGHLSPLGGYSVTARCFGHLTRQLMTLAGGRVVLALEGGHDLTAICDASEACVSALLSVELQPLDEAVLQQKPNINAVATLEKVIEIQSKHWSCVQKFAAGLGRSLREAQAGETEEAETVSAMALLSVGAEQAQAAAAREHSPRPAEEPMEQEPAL
Chain of Histone deacetylase 4 (P56524 whole entry): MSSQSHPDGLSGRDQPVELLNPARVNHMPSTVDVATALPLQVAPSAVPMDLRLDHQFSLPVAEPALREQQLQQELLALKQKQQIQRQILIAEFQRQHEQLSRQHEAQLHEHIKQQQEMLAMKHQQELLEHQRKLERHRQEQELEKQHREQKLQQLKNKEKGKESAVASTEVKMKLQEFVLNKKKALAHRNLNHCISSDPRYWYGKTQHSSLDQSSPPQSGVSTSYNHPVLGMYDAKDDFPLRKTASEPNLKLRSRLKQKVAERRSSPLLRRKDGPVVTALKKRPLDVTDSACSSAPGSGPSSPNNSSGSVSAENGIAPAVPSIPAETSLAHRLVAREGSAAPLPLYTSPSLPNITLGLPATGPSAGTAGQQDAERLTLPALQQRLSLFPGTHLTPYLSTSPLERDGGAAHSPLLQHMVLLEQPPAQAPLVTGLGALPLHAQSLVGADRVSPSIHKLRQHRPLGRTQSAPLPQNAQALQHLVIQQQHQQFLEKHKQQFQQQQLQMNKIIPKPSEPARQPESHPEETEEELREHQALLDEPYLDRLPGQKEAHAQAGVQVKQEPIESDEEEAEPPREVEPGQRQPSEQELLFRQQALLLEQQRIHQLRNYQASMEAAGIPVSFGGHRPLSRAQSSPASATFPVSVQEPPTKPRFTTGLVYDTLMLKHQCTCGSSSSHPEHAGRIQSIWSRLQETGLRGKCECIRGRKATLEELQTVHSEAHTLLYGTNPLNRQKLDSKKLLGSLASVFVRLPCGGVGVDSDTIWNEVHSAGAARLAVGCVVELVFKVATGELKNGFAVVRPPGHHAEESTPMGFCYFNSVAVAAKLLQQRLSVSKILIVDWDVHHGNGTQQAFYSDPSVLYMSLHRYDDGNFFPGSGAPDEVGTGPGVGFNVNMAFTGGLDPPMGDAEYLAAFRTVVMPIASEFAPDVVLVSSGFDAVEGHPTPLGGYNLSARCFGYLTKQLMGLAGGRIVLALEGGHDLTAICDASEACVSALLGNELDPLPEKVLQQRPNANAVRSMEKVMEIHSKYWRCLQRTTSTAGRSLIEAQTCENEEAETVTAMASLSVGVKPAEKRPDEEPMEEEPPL
Chain of Histone deacetylase 2 (Q92769 whole entry): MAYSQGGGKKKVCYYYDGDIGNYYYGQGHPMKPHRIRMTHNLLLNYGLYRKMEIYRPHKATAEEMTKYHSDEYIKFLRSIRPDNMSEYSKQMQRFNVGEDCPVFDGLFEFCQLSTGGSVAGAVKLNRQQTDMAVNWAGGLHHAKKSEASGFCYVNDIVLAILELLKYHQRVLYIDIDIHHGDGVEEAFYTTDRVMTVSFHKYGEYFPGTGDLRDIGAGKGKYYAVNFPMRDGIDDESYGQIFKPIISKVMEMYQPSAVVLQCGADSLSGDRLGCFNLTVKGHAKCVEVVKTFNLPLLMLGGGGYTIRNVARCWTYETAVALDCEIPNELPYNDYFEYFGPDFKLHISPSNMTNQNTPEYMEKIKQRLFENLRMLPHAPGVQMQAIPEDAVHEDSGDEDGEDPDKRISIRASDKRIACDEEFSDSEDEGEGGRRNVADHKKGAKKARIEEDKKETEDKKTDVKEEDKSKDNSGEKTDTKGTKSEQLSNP

IC50 (Histone deacetylase 2): 1590 nM
IC50 (Histone deacetylase 1): 199 nM
IC50 [1]: 69 nM
IC50 (Histone deacetylase 7): > 180000 nM
IC50 (Histone deacetylase 5): > 180000 nM
IC50 (Histone deacetylase 8): 5000 nM
IC50 (Histone deacetylase 4): > 180000 nM
Structure (SMILES): Nc1ccccc1NC(=O)CCCCCC(=O)Nc1ccccc1

logD [2]: 2.5
half-life [3]: 33.9 h
Drug uptake (Brain [4]): < 0.001%
logD [6]: 1.8
half-life [7]: 52 to 150 h
Drug uptake (Brain [8]): < 0.1%
Structure (SMILES): Nc1ccccc1NC(=O)c1ccc(CNC(=O)OCc2cccnc2)cc1 [ENTINOSTAT]
Activity (Rattus norvegicus [5]): 50%
Activity (Rattus norvegicus [9]): 25%
Activity (Rattus norvegicus [10]): 75%

Structure (SMILES): O=C(CCCCCCC(=O)Nc1ccccc1)NO [VORINOSTAT]
Activity (Mus musculus [11]): 40%
Activity (Mus musculus [12]): 40%
Activity (Rattus norvegicus [13]): 20%
